From article PMC10604610, “An Induced Pluripotent Stem Cell-Derived Human Blood–Brain Barrier (BBB) Model to Test the Crossing by Adeno-Associated Virus (AAV) Vectors and Antisense Oligonucleotides” (Biomedicines, 2023)

Columns and labels:
hCMEC/D3 cells = conditions: hCMEC/D3 on collagen I-coated Transwell polyester insert 0.4 μm pore, 900,000 cells/cm^2, 48 h; apical to basal; tracer 0.1 mg/mL in Ringer HEPES buffer pH 7.4; 37 °C, 60 min; fluorescence; mean of triplicate filters
iPSC-derived BMECs = conditions: three iPSC-derived BMEC models (4603, 19-9-7T, AD3-CL1); Transwell polyester insert 0.4 μm pore, 900,000 cells/cm^2, 48 h culture; apical to basal; tracer 0.1 mg/mL in Ringer HEPES buffer pH 7.4; 37 °C, 60 min; fluorescence plate reader; mean of triplicate filters
[1] = system: undifferentiated iPSCs (4603); conditions: undifferentiated iPSCs (4603) on collagen IV/fibronectin-coated Transwell insert, 900,000 cells/cm^2, 48 h; apical to basal; tracer 0.1 mg/mL in Ringer HEPES buffer pH 7.4; 37 °C, 60 min; fluorescence; mean of triplicate filters

| Molecule | % Permeability (percentage of tracer present in the basal chamber) (hCMEC/D3 cells) | % Permeability (percentage of tracer present in the basal chamber) (iPSC-derived BMECs) | % Permeability (percentage of tracer present in the basal chamber) [1] |
| --- | --- | --- | --- |
| O=C([O-])c1ccccc1-c1c2ccc(=O)cc-2oc2cc([O-])ccc12.[Na+].[Na+] [Na-F, sodium fluorescein] | significantly higher than in iPSC-derived BMECs but significantly lower than that of control iPSCs | about 5% |  |
| lucifer yellow [LY] | around 16% | Less than 2% | around 16% |
